Molecules are shown by their SMILES.

We go through 3 compounds from ChEMBL document CHEMBL5728890, “HDAC6 inhibitors and imaging agents” (2021).

Assay [1] deals with T1, Protein deacetylase HDAC6 (Homo sapiens, UniProt Q9UBN7).
T1 sequence (Q9UBN7 whole entry): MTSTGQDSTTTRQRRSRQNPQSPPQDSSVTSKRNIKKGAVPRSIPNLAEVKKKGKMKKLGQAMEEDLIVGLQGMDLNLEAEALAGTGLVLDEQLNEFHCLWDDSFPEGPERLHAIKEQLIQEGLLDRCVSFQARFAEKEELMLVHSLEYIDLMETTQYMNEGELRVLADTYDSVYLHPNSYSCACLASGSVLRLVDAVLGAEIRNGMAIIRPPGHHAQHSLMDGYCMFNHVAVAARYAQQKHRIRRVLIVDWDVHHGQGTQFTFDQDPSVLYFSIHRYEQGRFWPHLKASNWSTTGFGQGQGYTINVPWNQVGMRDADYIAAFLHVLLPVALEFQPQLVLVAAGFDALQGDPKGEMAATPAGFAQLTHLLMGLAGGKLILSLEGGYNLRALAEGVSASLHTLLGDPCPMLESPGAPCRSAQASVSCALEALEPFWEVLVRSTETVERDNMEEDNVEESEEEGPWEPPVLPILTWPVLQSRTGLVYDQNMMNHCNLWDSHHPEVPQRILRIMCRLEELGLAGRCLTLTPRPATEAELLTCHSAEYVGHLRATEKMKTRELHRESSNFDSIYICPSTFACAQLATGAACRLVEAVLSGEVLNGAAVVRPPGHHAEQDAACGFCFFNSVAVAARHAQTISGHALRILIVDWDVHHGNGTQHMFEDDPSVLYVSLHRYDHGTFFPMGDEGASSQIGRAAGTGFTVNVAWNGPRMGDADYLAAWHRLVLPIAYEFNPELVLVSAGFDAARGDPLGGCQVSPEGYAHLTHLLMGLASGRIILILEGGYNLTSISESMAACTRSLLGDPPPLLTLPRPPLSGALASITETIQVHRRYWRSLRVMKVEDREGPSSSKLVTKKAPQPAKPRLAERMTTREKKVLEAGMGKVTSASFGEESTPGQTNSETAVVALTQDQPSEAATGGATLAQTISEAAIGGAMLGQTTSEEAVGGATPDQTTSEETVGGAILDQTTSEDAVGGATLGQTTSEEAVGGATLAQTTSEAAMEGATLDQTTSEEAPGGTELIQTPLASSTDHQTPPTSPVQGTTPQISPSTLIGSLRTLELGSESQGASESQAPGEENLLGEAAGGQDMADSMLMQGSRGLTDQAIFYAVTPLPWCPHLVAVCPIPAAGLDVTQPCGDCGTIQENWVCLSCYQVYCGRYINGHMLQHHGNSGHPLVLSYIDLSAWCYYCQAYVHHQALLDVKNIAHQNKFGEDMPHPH
The experiment in a line: (§1) IC50 Assay: IC50 measurements were conducted by BPS Biosciences (Table 1) or by Nanosyn (Table 1A) with an established fluorescence assay.

For assay [2], the target named is T2, Polyamine deacetylase HDAC10 (Homo sapiens, UniProt Q969S8).
T2 sequence (Q969S8 whole entry): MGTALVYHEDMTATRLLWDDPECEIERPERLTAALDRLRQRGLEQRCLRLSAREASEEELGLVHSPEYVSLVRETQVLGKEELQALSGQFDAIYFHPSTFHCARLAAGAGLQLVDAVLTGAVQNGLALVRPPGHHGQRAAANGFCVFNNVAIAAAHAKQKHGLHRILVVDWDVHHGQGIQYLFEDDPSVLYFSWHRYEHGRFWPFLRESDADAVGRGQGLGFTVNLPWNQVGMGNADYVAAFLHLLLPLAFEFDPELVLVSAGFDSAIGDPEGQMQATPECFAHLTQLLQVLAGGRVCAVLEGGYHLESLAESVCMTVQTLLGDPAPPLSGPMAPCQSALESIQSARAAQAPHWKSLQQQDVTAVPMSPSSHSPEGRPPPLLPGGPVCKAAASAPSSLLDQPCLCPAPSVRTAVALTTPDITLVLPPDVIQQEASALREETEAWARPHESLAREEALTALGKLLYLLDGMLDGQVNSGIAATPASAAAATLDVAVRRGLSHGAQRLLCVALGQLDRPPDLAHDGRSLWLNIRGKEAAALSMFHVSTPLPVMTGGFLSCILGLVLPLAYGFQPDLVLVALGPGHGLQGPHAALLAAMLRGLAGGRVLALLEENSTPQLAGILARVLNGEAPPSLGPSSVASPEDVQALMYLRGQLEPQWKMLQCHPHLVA
The assay is described as §1.

The next assay addresses Histone deacetylase 9 (Homo sapiens, UniProt Q9UKV0). Described as §1.
Another assay deals with Histone deacetylase 4 (Homo sapiens, UniProt P56524). The description is as §1.
The next assay addresses T3, Histone deacetylase 11 (Homo sapiens, UniProt Q96DB2).
T3 sequence (Q96DB2 whole entry): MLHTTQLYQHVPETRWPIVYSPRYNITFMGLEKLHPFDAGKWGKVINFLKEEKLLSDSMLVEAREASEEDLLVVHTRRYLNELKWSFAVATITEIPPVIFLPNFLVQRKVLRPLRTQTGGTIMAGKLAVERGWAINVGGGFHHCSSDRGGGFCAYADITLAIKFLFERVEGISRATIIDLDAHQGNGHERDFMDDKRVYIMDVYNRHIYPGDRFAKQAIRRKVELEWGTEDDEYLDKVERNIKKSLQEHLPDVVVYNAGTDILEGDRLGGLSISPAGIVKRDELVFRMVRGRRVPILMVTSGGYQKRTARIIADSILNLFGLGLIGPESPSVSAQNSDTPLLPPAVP
The description is as §1.

The target in a further assay is Histone deacetylase 1 (Homo sapiens, UniProt Q13547). The assay is described as §1.
A further assay deals with Histone deacetylase 3 (Homo sapiens, UniProt O15379). Described as §1.
Another assay addresses T4, Histone deacetylase 7 (Homo sapiens, UniProt Q8WUI4).
T4 sequence (Q8WUI4 whole entry): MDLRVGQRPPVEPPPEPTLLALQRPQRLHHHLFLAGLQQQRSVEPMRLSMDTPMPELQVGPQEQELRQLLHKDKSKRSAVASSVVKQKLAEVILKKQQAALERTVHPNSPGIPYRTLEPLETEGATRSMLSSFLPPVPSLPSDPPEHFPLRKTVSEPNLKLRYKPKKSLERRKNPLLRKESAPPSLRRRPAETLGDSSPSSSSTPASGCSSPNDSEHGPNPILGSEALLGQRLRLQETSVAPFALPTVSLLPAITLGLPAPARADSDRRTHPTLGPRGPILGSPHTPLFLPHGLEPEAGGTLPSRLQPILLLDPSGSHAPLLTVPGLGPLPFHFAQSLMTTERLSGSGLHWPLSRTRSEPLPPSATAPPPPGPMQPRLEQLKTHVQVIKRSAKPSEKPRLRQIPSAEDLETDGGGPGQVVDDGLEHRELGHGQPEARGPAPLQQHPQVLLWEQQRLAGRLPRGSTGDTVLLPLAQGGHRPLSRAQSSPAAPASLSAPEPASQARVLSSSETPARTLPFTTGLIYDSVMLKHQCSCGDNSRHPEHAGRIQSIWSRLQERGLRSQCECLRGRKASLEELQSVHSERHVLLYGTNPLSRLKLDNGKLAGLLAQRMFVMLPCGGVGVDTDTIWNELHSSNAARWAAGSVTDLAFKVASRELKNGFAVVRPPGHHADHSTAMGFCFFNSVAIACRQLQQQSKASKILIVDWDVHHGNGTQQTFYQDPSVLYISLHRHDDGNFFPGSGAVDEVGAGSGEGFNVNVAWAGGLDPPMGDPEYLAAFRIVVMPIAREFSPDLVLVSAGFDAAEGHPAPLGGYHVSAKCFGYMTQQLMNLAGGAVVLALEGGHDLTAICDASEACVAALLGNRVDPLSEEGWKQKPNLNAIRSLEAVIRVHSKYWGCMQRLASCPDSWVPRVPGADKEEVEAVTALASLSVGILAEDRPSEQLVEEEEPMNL
Described as §1.

Another assay has as its target Histone deacetylase 5 (Homo sapiens, UniProt Q9UQL6). Described as §1.
The target in a further assay is T5, Histone deacetylase 8 (Homo sapiens, UniProt Q9BY41).
T5 sequence (Q9BY41 whole entry): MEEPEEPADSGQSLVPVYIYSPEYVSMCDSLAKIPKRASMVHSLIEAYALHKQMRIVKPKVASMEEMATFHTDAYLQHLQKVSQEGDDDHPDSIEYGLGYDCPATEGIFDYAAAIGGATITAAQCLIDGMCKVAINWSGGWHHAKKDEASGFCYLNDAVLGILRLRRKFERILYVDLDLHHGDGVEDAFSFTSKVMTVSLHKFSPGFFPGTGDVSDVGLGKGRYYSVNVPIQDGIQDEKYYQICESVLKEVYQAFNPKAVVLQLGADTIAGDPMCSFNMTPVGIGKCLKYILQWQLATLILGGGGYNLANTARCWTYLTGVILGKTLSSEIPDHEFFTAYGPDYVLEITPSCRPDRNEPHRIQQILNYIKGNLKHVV
The assay is described as §1.

Histone deacetylase 5, sequence (Q9UQL6 whole entry): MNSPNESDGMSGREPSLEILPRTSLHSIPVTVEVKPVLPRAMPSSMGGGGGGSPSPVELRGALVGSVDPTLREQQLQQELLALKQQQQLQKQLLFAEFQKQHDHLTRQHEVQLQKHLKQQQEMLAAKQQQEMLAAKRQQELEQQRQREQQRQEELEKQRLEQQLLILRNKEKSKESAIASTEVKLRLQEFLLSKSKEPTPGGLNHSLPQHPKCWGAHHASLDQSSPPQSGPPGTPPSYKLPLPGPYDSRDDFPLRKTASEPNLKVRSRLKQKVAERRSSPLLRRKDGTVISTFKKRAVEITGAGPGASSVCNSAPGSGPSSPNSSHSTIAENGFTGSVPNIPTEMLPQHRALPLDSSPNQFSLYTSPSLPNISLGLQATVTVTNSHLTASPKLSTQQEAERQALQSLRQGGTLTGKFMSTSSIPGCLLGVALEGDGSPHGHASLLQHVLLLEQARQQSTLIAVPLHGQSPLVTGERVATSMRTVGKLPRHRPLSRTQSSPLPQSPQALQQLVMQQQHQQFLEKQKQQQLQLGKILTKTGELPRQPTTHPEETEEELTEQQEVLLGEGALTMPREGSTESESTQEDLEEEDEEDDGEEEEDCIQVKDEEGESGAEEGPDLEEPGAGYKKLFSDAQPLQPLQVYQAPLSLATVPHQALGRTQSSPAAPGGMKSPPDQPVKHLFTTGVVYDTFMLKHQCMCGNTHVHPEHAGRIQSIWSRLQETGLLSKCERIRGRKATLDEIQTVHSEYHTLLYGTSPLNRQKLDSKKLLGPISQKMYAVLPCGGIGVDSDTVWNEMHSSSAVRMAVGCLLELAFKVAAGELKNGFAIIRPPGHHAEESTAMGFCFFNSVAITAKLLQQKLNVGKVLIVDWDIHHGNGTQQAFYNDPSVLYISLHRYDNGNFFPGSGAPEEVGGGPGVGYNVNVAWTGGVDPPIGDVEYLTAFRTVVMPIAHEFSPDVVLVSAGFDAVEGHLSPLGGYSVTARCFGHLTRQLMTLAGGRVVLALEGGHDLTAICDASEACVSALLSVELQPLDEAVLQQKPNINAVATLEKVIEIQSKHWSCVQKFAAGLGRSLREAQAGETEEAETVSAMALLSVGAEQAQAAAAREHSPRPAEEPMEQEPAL
Histone deacetylase 1, sequence (Q13547 whole entry): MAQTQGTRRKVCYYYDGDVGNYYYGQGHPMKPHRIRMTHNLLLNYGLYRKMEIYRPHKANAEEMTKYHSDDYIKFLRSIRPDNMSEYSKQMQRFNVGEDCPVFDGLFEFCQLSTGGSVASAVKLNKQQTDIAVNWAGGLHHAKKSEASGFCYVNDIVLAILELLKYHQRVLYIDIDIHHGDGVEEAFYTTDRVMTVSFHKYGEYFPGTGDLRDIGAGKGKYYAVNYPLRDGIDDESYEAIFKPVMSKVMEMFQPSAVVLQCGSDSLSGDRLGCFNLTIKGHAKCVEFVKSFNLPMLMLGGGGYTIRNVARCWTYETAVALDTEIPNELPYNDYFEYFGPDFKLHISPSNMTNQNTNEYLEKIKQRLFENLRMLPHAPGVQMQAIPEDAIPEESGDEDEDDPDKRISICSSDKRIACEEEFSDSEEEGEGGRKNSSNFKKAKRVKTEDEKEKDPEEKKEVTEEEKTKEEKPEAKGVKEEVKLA
Histone deacetylase 9, sequence (Q9UKV0 whole entry): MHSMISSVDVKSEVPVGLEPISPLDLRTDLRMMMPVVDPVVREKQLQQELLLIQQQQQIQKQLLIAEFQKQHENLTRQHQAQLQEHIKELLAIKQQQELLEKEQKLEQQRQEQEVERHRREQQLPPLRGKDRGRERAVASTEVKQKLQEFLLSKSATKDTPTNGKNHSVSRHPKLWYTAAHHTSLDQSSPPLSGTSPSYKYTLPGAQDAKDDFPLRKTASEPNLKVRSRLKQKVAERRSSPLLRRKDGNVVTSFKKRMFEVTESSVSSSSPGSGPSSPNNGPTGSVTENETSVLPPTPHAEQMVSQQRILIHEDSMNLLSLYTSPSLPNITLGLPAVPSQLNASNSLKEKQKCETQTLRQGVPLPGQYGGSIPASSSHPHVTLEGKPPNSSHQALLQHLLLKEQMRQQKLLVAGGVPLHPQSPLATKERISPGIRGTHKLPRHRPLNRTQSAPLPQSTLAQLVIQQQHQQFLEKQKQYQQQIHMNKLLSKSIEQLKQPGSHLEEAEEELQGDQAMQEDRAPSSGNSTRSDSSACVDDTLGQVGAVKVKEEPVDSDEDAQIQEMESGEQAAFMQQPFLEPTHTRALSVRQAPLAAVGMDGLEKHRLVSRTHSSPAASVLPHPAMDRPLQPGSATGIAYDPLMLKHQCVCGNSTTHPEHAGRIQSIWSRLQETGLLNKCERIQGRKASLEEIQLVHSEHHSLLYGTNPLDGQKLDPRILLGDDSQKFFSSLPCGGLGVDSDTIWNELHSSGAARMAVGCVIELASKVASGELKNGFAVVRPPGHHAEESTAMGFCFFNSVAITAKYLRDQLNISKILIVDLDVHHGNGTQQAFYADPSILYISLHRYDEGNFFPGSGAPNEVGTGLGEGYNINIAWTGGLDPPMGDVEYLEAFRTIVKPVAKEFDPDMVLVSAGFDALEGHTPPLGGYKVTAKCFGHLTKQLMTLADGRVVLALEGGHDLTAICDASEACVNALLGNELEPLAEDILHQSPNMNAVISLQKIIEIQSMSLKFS
Histone deacetylase 4, sequence (P56524 whole entry): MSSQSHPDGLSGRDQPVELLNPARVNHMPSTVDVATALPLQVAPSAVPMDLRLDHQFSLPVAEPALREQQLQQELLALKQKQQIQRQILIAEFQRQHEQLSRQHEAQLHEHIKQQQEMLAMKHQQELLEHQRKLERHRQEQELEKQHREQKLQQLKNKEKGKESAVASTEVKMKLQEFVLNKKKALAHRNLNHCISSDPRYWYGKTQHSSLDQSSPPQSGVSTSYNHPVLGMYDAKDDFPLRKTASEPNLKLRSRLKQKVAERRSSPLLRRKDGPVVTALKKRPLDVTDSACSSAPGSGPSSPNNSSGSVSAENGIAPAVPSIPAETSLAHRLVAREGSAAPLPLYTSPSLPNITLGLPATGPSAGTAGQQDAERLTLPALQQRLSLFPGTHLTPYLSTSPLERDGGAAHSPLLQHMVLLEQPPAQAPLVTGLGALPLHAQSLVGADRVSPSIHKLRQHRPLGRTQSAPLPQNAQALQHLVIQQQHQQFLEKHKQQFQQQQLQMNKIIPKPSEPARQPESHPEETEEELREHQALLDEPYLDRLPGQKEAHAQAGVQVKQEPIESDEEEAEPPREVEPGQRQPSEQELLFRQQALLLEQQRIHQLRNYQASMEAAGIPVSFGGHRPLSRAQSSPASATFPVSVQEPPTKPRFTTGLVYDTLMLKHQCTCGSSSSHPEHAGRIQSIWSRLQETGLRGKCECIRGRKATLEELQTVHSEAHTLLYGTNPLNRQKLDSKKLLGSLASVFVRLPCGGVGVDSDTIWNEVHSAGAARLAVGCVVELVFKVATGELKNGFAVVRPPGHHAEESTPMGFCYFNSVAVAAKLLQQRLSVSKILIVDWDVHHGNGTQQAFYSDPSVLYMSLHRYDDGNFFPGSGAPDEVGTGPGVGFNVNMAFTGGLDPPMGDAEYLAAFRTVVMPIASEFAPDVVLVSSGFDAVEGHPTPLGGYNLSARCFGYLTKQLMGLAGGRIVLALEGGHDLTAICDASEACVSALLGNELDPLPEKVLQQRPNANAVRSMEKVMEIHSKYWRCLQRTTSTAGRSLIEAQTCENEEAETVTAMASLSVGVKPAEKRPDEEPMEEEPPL
Histone deacetylase 3, sequence (O15379 whole entry): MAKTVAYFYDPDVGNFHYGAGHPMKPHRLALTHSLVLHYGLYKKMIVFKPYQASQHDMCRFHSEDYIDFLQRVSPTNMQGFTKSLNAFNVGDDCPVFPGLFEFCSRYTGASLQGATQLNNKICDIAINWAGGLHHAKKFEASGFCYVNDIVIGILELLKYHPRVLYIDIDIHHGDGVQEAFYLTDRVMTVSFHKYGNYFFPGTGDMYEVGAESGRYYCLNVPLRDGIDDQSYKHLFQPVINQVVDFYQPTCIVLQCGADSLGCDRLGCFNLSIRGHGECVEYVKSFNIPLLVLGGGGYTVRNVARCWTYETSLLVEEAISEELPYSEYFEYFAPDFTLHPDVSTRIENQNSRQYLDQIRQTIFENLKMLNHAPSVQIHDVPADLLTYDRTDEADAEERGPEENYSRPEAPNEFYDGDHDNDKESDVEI

What is called IC50 is the concentration that gives 50% inhibition. Low readings indicate greater potency in that assay, high ones weaker potency in that assay. On to `CN(Cc1ccc(/C=C/C(=O)NO)cc1F)CC12CC3CC(CC(C3)C1)C2`, for which the IC50 in assay [1] is 180 nM; in assay [2] it was 33 nM; on Histone deacetylase 9, over 1000 nM; at Histone deacetylase 4 it was over 1000 nM; against Histone deacetylase 11 it was over 1000 nM; against Histone deacetylase 1 it was 17 nM. For the same compound, the 50% inhibitory concentration (IC50) was 23 nM against Histone deacetylase 3, over 1000 nM against Histone deacetylase 7, over 1000 nM at Histone deacetylase 5 and over 1000 nM against Histone deacetylase 8.

`O=C(CCCCCCNC(=O)c1cnc(N(c2ccccc2)c2ccccc2)nc1)NO` [RICOLINOSTAT] showed an IC50 in assay [2] of over 1000 nM.

`CC(=O)Nc1ccc(C(=O)Nc2ccccc2N)cc1` [TACEDINALINE] displayed a 50% inhibitory concentration (IC50) on Histone deacetylase 11 of 2830 nM.
